What follows are molecules tested against T1, human type 1 glycine transporter (GlyT1) (Homo sapiens, UniProt P48067) (assay: Glycine uptake inhibition experiment ([3H] glycine uptake in T98G cells expressing GlyT1)). Details: not given.
T1 construct: T98G cells (glioma cells) expressing human type 1 glycine transporter (GlyT1) were used; endogenous in cells; host or cells: T98G cells (human glioma cells)
T1 sequence (P48067 1-706): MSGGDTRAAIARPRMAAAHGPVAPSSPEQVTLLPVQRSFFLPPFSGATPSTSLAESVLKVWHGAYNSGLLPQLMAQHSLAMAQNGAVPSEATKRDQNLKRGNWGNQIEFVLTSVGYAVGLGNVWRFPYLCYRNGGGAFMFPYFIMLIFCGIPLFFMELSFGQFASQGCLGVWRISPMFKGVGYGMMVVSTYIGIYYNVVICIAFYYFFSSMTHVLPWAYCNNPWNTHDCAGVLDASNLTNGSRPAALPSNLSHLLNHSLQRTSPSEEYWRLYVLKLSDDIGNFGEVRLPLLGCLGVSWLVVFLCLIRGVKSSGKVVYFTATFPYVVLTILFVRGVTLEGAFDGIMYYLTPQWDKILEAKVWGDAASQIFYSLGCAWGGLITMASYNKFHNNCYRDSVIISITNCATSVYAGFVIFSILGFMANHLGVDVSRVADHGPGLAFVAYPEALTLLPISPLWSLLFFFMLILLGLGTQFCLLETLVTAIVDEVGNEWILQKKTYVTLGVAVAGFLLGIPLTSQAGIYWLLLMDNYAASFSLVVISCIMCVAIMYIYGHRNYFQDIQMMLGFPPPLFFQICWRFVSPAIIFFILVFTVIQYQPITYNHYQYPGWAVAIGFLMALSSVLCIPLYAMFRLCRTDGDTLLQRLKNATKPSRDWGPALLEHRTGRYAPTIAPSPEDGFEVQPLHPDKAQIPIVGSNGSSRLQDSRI
Assay type: cell-based
Summary of the method: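 T98G glioma cells expressing human GlyT1 were pretreated 10 min with compound in HEPES buffer pH 7.4 (0.2% BSA), then incubated with compound plus 250 nM final [3H]glycine for 15 min at room temperature. Intracellular radioactivity was counted after NaOH lysis; 10 μM ALX5407 defined non-specific uptake. IC50 came from 10^−9–10^−5 M curves.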
`C[C@H](O)c1cccc2c1C(F)(F)C(=O)N2Cc1ccc(F)c(C#N)n1` [Compound 236, 6-({3,3-difluoro-4-[(1S)-1-hydroxyethyl]-2-oxo-2,3-dihydro-1H-indol-1-yl}methyl)-3-fluoropyiidine-2-carbonitrile] was tested, and the IC50 was 4 nM.
Molecule `O=C1N(Cc2ccc(Cl)cn2)c2cccc(C(O)C(F)F)c2C1(F)F` (single isomer, unassigned) [Compound 162, 1-[(5-chloropyridin-2-yl)methyl]-4-(2,2-difluoro-1-hydroxyethyl)-3,3-difluoro-1,3-dihydro-2H-indol-2-one] has an IC50 of 220 nM.
Molecule `C[C@H](O)c1cccc2c1C(F)(F)C(=O)N2Cc1cc(OC(F)F)ccn1` [Compound 245, 1-{[4-(difluoromethoxy)pyridin-2-yl]methyl}-3,3-difluoro-4-[(1S)-1-hydroxyethyl]-1,3-dihydro-2H-indol-2-one] has an IC50 of 110 nM.
In the case of `N#Cc1cncc(CN2C(=O)C(F)(F)c3c(C(O)C(F)F)cccc32)c1` (single isomer, unassigned) [Compound 164, 5-{[4-(2,2-difluoro-1-hydroxyethyl)-3,3-difluoro-2-oxo-2,3-dihydro-1H-indol-1-yl]methyl}pyridine-3-carbonitrile], the IC50 is reported as 460 nM.
With `C[C@H](O)c1cccc2c1C(F)(F)C(=O)N2Cc1ccc(F)c(Cl)n1` [Compound 237, 1-[(6-chloro-5-fluoropyridin-2-yl)methyl]-3,3-difluoro-4-[(1S)-1-hydroxyethyl]-1,3-dihydro-2H-indol-2-one] the IC50 was 2.9 nM.
`C[C@H](O)c1cccc2c1C(F)(F)C(=O)N2Cc1ccc(OC(F)F)nc1` [Compound 215, 1-{[6 (difluoromethoxy)pyridin-3-yl]methyl}-3,3-difluoro-4-[(1S)-1-hydroxyethyl]-1,3-dihydro-2H-indol-2-one] gave an IC50 of 240 nM.
Molecule `N#Cc1cc(CN2C(=O)C(F)(F)c3c(C(O)C(F)F)cccc32)c(Cl)cn1` (single isomer, unassigned) [Compound 220] has an IC50 of 170 nM.
`C[C@H](O)c1cccc2c1C(F)(F)C(=O)N2Cc1ccc(Cl)nc1C#N` [Compound 248, 6-chloro-3-({3,3-difluoro-4-[(1S)-1-hydroxyethyl]-2-oxo-2,3-dihydro-1H-indol-1-yl}methyl)pyridine-2-carbonitrile] gave an IC50 of 1200 nM.
`C[C@H](O)c1cccc2c1C(F)(F)C(=O)N2Cc1cnc(F)c(Br)c1` [Compound 228, 1-[(5-bromo-6-fluoropyridin-3-yl)methyl]-3,3-difluoro-4-[(1S)-1-hydroxyethyl]-1,3-dihydro-2H-indol-2-one] was tested, and the IC50 was 2.1 nM.
Work on `Cn1c(=O)c(CN2C(=O)C(F)(F)c3c(C(O)C(F)F)cccc32)nc2ccccc21` (single isomer, unassigned) [Compound 167, 3-{[4-(2,2-difluoro-1-hydroxyethyl)-3,3-difluoro-2-oxo-2,3-dihydro-1H-indol-1-yl]methyl)-1-methylquinoxalin-2(1H)-one] yielded an IC50 of 62 nM.
`C[C@H](O)c1cccc2c1C(F)(F)C(=O)N2Cc1ccc(-n2cncn2)nc1` [Compound 193, 3,3-difluoro-4-[(1S)-1-hydroxyethyl]-1-{[6-(1H-1,2,4-biazol-1-yl)pyridin-3-yl]methyl}-1,3-dihydro-2H-indol-2-one] was tested, and the IC50 was 1400 nM.
Molecule `CC(O)c1c(F)ccc2c1C(F)(F)C(=O)N2Cc1ccnc(C#N)c1` (single isomer, unassigned) [Compound 184, 4-{(3,3,5-trifluoro-4-(1-hydroxyethyl)-2-oxo-2,3-dihydro-1H-indol-1-yl]methyl}pyridine-2-carbonitrile] has an IC50 of 95 nM.
`Cn1c(CN2C(=O)C(F)(F)c3c(C(O)C(F)F)cccc32)nc2ccccc21` (single isomer, unassigned) [Compound 170, 4-(2,2-difluoro-1-hydroxyethyl)-3,3-difluoro-1-[(1-methyl-1H-benzimidazol-2-yl)methyl]-1,3-dihydro-2H-indol-2-one] gave an IC50 of 110 nM.
`C[C@H](O)c1cccc2c1C(F)(F)C(=O)N2Cc1cc(Cl)c(F)cn1` [Compound 250] gave an IC50 of 9.8 nM.
`C[C@H](O)c1cccc2c1C(F)(F)C(=O)N2Cc1cnc(Cl)c(C#N)c1` [Compound 251, 2-chloro-5-({3,3-difluoro-4-[(1S)-1-hydroxyethyl]-2-oxo-2,3-dihydro-1H-indol-1-yl)methyl)pyridine-3-carbonitrile] showed an IC50 of 20 nM.
With `C[C@H](O)c1cccc2c1C(F)(F)C(=O)N2Cc1ccncc1Cl` [Compound 185, 1-[(3-chloropyridin-4-yl)methyl]-3,3-difluoro-4-[(1S)-1-hydroxyethyl]-1,3-dihydro-2H-indol-2-one] the IC50 was 280 nM.
With `COc1cccnc1CN1C(=O)C(F)(F)c2c([C@H](C)O)cccc21` [Compound 247, 3,3-difluoro-4-[(1S)-1-hydroxyethyl]-1-[(3-methoxypyridin-2-yl)methyl]-1,3-dihydro-2H-indol-2-one] the IC50 was 580 nM.

Same assay, conditions: glycine uptake inhibition
For `C[C@H](O)c1cccc2c1C(F)(F)C(=O)N2Cc1ccc(F)cn1` [Compound 114, 3,3-difluoro-1-[(5-fluoropyridin-2-yl)methyl]-4-[(1S)-1-hydroxyethyl]-1,3-dihydro-2H-indol-2-one], the IC50 was 61 nM.
Molecule `C[C@@H](O)c1cccc2c1C(F)(F)C(=O)N2Cc1ccnc(C#N)c1` [Compound 38, 4-({3,3-difluoro-4-[(1R)-1-hydroxyethyl]-2-oxo-2,3-dihydro-1H-indol-1-yl}methyl)pyridine-2-carbonitrile] has an IC50 of 5300 nM.
For `C[C@H](O)c1cccc2c1C(F)(F)C(=O)N2Cc1cnc2ccccc2c1` [Compound 74, 3,3-difluoro-4-[(1S)-1-hydroxyethyl)-1-(quinolin-3-ylmethyl)-1,3-dihydro-2H-indol-2-one], the IC50 was 39 nM.
`CC(O)c1cccc2c1C(F)(F)C(=O)N2Cc1ccnc(Cl)c1` (single isomer, unassigned) [Compound 34, 1-[(2-chloropyridin-4-yl)methyl]-3,3-difluoro-4-(1-hydroxyethyl)-1,3-dihydro-2H-indol-2-one] gave an IC50 of 4600 nM.
With `N#Cc1cccc(CN2C(=O)C(F)(F)c3c(C(O)C(F)(F)F)cccc32)n1` (centres unmarked) [Compound 13, 6-{[3,3-difluoro-2-oxo-4-(2,2,2-trifluoro-1-hydroxyethyl)-2,3-dihydro-1H-indol-1-yl]methyl}pyridine-2-carbonitrile] the IC50 was 96 nM.
`CC(O)c1cccc2c1C(F)(F)C(=O)N2Cc1ccnc(F)c1` (centres unmarked) [Compound 29, 3,3-difluoro-1-[(2-fluoropyridin-4-yl)methyl]-4-(1-hydroxyethyl)-1,3-dihydro-2H-indol-2-one] gave an IC50 of 77 nM.
With `C[C@H](O)c1cccc2c1C(F)(F)C(=O)N2Cc1cccc(C(F)(F)F)c1` [Compound 58, 3,3-difluoro-4-[(1S)-1-hydroxyethyl]-1-[3-(trifluoromethyl)benzyl]-1,3-dihydro-2H-indol-2-one] the IC50 was 6.6 nM.
Work on `C[C@H](O)c1cccc2c1C(F)(F)C(=O)N2Cc1cccc(C#N)c1` [Compound 57, 3-({3,3-difluoro-4-[(1S)-1-hydroxyethyl]-2-oxo-2,3-dihydro-1H-indol-1-yl}methyl) benzonitrile] yielded an IC50 of 15 nM.
For `O=C1N(Cc2cccc(F)c2)c2cccc(C(O)C(F)F)c2C1(F)F` (single isomer, unassigned) [Compound 158, 4-(2,2-difluoro-1-hydroxyethyl)-3,3-difluoro-1-(3-fluorobenzyl)-1,3-dihydro-2H-indol-2-one], the IC50 was 16 nM.
Molecule `O=C1N(Cc2cncc(Cl)c2)c2cccc(C(O)C(F)(F)F)c2C1(F)F` (single isomer, unassigned) [Compound 23, 1-[(5-chloropyridin-3-yl)methyl]-3,3-difluoro-4-(2,2,2-trifluoro-1-hydroxyethyl)-1,3-dihydro-2H-indol-2-one] has an IC50 of 38 nM.
`O=C1N(Cc2ccnc(Cl)c2)c2cccc(C(O)C(F)F)c2C1(F)F` (single isomer, unassigned) [Compound 36, 1-[(2-chloropyridin-4-yl)methyl]-4-(2,2-difluoro-1-hydroxyethyl)-3,3-difluoro-1,3-dihydro-2H-indol-2-one] gave an IC50 of 13 nM.
`C[C@H](O)c1cccc2c1C(F)(F)C(=O)N2Cc1nc2ccccc2c(=O)n1C` [Compound 41, 2-({3,3-difluoro-4-[(1S)-1-hydroxyethyl]-2-oxo-2,3-dihydro-1H-indol-1-yl}methyl)-3-methylquinazolin-4(3H)-one] was tested, and the IC50 was 29 nM.
In the case of `O=C1N(Cc2ccnc(Cl)c2)c2cccc(C(O)C(F)F)c2C1(F)F` (single isomer, unassigned) [Compound 35], the IC50 is reported as 280 nM.

Same assay, conditions: table section whose head prints (μm)
`N#Cc1nc(CN2C(=O)C(F)(F)c3c(C(O)C(F)F)cccc32)ccc1Cl` (single isomer, unassigned) [Compound 271, 3-chloro-6-{[4-(2,2-difluoro-1-hydroxyethyl)-3,3-difluoro-2-oxo-2,3-dihydro-1H-indol-1-yl]methyl}pyridine-2-carbonitrile] showed an IC50 of 5.5 nM.
For `N#Cc1nccc(CN2C(=O)C(F)(F)c3c(C(O)C(F)F)cccc32)c1Cl` (single isomer, unassigned) [Compound 267], the IC50 was 260 nM.
